The nature of the first data set: RP, 50 × 0.5 mm, 2.7 µm, 35 °C, 0.01 mL/min, estimated dead time 0.62 min; A: water + 0.1% formic acid, pH 3; B: acetonitrile + 0.1% formic acid, pH 3; gradient (min/%B) 0/5 12/95 14/95 16/5. The settings on record: stereoisomer not certain.
Take `COc1ccc(-c2cc(=O)c3c(OC)c(OC)c(OC)c(OC)c3o2)cc1` [Tangeretin]: the LC retention time was 7.8 min.
For `OCC1OC(Oc2cc3c(O)cc(O)cc3[o+]c2-c2ccc(O)c(O)c2)C(O)C(O)C1O` (configuration not stated) [Cyanidin 3-O-glucoside], the LC retention time is 3.25 min.

A short description of the next data set: RP, 150 × 2.1 mm, 2.6 µm, 40 °C, 0.35 mL/min, estimated dead time 0.94 min; A: water + 0.1% formic acid, pH 3; B: acetonitrile + 0.1% formic acid, pH 3; gradient (min/%B) 0/0 1/0 12.5/100 14/100 14.2/0 15/0. The settings on record: stereoisomer not certain.
In the case of `O=c1cc(-c2ccc(O)c(O)c2)oc2cc(OC3OC(CO)C(O)C(O)C3O)cc(O)c12` (configuration not stated) [Luteolin 7-glucoside], the LC retention time is 5.68 min.
For the molecule `COc1cc(C=O)cc(OC)c1O` [Syringaldehyde], the LC retention time was 5.74 min.
On the same count and under the same terms, in the case of `COc1cc(-c2oc3cc(O)cc(O)c3c(=O)c2OC2OC(COC3OC(C)C(O)C(O)C3O)C(O)C(O)C2O)ccc1O` (configuration not stated) [Isorhamnetin-3-O-rutinoside] it was 5.8 min.
Consider `COc1cc(C=CC(=O)O)cc(OC)c1OC` [o-Methylsinapic acid], for which the LC retention time was 7.02 min.
The same measure, in the same setting: in the case of `O=C1CC(c2ccc(O)cc2)Oc2cc(O)cc(O)c21` (configuration not stated) [Naringenin] it was 7.61 min; in that of `O=c1c(O)c(-c2ccc(OC3OC(CO)C(O)C(O)C3O)c(O)c2)oc2cc(O)cc(O)c12` (configuration not stated) [Quercetin 4-O-glucoside], 6.09 min.

The next data set is described as follows: RP, 150 × 2.1 mm, 2.6 µm, 40 °C, 0.35 mL/min, estimated dead time 0.94 min; A: water + 0.1% formic acid, pH 3; B: acetonitrile + 0.1% formic acid, pH 3; gradient (min/%B) 0/0 1/5 7/45 8.5/80 10.5/80 11/5 12/5. Particulars: stereoisomer not certain.
Regarding `O=c1cc(-c2ccc(O)c(O)c2)oc2cc(OC3OC(CO)C(O)C(O)C3O)cc(O)c12` (configuration not stated) [Luteolin 7-glucoside], the LC retention time is 5.79 min.
For the molecule `COc1cc(C=O)cc(OC)c1O` [Syringaldehyde], the LC retention time was 5.66 min.
On to `COc1cc(-c2oc3cc(O)cc(O)c3c(=O)c2OC2OC(COC3OC(C)C(O)C(O)C3O)C(O)C(O)C2O)ccc1O` (configuration not stated) [Isorhamnetin-3-O-rutinoside], for which the LC retention time is 5.95 min.
On to `COc1cc(C=CC(=O)O)cc(OC)c1OC` [o-Methylsinapic acid], for which the LC retention time is 7.28 min.
The same measure, in the same setting: in the case of `O=C1CC(c2ccc(O)cc2)Oc2cc(O)cc(O)c21` (configuration not stated) [Naringenin] it was 7.97 min.

A further data set is described as follows: RP, Phenomenex Kinetex EVO C18, 100 × 2.1 mm, 2.6 µm, 40 °C, 0.4 mL/min, estimated dead time 0.55 min; A: water + 0.2% formic acid; B: acetonitrile + 0.2% formic acid; gradient (min/%B) 0/5 0.5/5 7/95 8/95 8.5/5 12/5. Particulars: stereoisomer not certain.
Consider `CC=C1C(OC2OC(CO)C(O)C(O)C2O)OC=C(C(=O)OC)C1CC(=O)OCCc1ccc(O)c(O)c1` (configuration not stated) [Oleuropein], for which the LC retention time was 5.24 min.

A short description of another data set: RP, Phenomenex Synergi Hydro-RP, 150 × 2 mm, 4 µm, 30 °C, 0.5 mL/min, estimated dead time 0.6 min; A: water + 0.1% formic acid, pH 3; B: acetonitrile + 0.1% formic acid, pH 3; gradient (min/%B) 0/5 1/5 35/45 40/100 45/100. Particulars: stereoisomer not certain.
Regarding `COc1ccc(-c2cc(=O)c3c(OC)c(OC)c(OC)c(OC)c3o2)cc1` [Tangeretin], the LC retention time was 36.5 min.
Still for that read-out and setting: in the case of `OC1C(O)C(O)C(O)C(O)C1O` (configuration not stated) [myo-inositol] it was 8.53 min.
The same measure, in the same setting: in the case of `COc1cc(C(=O)O)ccc1O` [vanillic acid] it was 9.27 min; in that of `Cn1cnc2c1c(=O)[nH]c(=O)n2C` [theobromine], 4.64 min; in that of `C[N+]1(C)CCCC1C(=O)[O-]` (configuration not stated) [stachydrine (proline betaine)], 0.844 min.
Take `COc1cc(C=O)ccc1O` [vanillin]: the LC retention time was 8.67 min.
Still for that read-out and setting: in the case of `CC1CCC2(C(=O)O)CCC3(C)C(=CCC4C5(C)CCC(O)C(C)(C)C5CCC43C)C2C1C` (configuration not stated) [ursolic acid] it was 42 min; in that of `OCC1OC(Oc2cc3c(O)cc(O)cc3[o+]c2-c2ccc(O)c(O)c2)C(O)C(O)C1O` (configuration not stated) [Cyanidin 3-O-glucoside], 9.85 min.

A further data set is described as follows: RP, Phenomenex Luna Omega Polar C18, 100 × 2.1 mm, 1.6 µm, 40 °C, 0.5 mL/min, estimated dead time 0.44 min; A: water + 0.5% formic acid; B: acetonitrile + 0.5% formic acid; gradient (min/%B) 0/5 3/50 3.1/100 5/100 5.1/5 7/5. The settings on record: stereoisomer not certain.
With `COc1ccc(-c2cc(=O)c3c(OC)c(OC)c(OC)c(OC)c3o2)cc1` [Tangeretin], the LC retention time was 3.93 min.
On to `OCC1OC(Oc2cc3c(O)cc(O)cc3[o+]c2-c2ccc(O)c(O)c2)C(O)C(O)C1O` (configuration not stated) [Cyanidin 3-O-glucoside], for which the LC retention time was 1.76 min.

Another data set is described as follows: RP, Phenomenex Luna C18, 150 × 4.6 mm, 3 µm, 25 °C, 0.5 mL/min, estimated dead time 3.2 min; A: water + 0.1% formic acid, pH 3; B: acetonitrile + 0.1% formic acid, pH 3; gradient (min/%B) 0/0 30/30 35/40 50/80 52/80 60/0 65/0. Particulars: stereoisomer not certain.
`COc1ccc(-c2cc(=O)c3c(OC)c(OC)c(OC)c(OC)c3o2)cc1` [Tangeretin]: the LC retention time is 49 min.
Same read-out and setting: the same measure for `OCC1OC(Oc2cc3c(O)cc(O)cc3[o+]c2-c2ccc(O)c(O)c2)C(O)C(O)C1O` (configuration not stated) [Cyanidin 3-O-glucoside]: 9.83 min.

Another data set can be described thus: RP, Waters ACQUITY UPLC HSS T3, 100 × 2.1 mm, 50 °C; A: water + 0.1% formic acid, pH 3; B: 30% methanol + 70% acetonitrile + 0.1% formic acid, pH 3; gradient (min/%B) 0/5 1/8 2/15 3/40 4/70 4.5/100 5/100 6.4/100 6.6/5 6.8/5 7/5. Particulars: stereoisomer not certain.
In the case of `O=C(O)/C=C/c1cccc(O)c1` [m-Coumaric acid], the LC retention time worked out at 3.53 min.

A short description of the next data set: RP, Merck LiChrospher RP-18, 250 × 4 mm, 5 µm, 35 °C, 0.3 mL/min, estimated dead time 6.7 min; A: water + 0.5% formic acid; B: acetonitrile + 0.5% formic acid; gradient (min/%B) 0/5 10/5 30/15 45/20 65/20 95/54 110/63 115/5 135/5. Particulars: stereoisomer not certain.
Consider `OCCc1ccc(O)cc1` [Tyrosol], for which the LC retention time is 38.7 min.
The same measure, in the same setting: in the case of `O=c1cc(-c2ccc(O)c(O)c2)oc2cc(OC3OC(CO)C(O)C(O)C3O)cc(O)c12` (configuration not stated) [Luteolin 7-glucoside] it was 62.2 min; in that of `COc1cc(C=O)cc(OC)c1O` [Syringaldehyde], 58.1 min; in that of `COc1cc(-c2oc3cc(O)cc(O)c3c(=O)c2OC2OC(COC3OC(C)C(O)C(O)C3O)C(O)C(O)C2O)ccc1O` (configuration not stated) [Isorhamnetin-3-O-rutinoside], 71.3 min.
`O=C(O)CC(O)C(=O)O` (configuration not stated) [malic acid]: the LC retention time was 8.06 min.
The same measure, in the same setting: in the case of `COc1cc(C=CC(=O)O)cc(OC)c1OC` [o-Methylsinapic acid] it was 90.1 min; in that of `COc1cc(-c2oc3cc(O)cc(O)c3c(=O)c2OC2OC(CO)C(O)C(O)C2O)ccc1O` (configuration not stated) [Isorhamnetin-3-O-glucoside], 78.5 min.
On to `CC=C1C(OC2OC(CO)C(O)C(O)C2O)OC=C(C(=O)OC)C1CC(=O)OCCc1ccc(O)c(O)c1` (configuration not stated) [Oleuropein], for which the LC retention time was 83.2 min.
The same measure, in the same setting: in the case of `CC1OC(OCC2OC(Oc3cc4c(O)cc(O)cc4[o+]c3-c3ccc(O)c(O)c3)C(O)C(O)C2O)C(O)C(O)C1O` (configuration not stated) [Cyanidin-3-O-rutinoside] it was 49.6 min; in that of `CCOC(=O)C=Cc1ccc(O)c(O)c1` [Ethyl Caffeate], 92.7 min.

The values above are taken from the RepoRT retention time repository (doi:10.1016/j.foodchem.2021.129757).
